Assay results published in patent US4228187A, “Alkyl and cycloalkylthiophenylalkylaminoalkanols, their salts and the preparation thereof” (priority 1973, dated 1980).

Key:
DL50 mouse p.o. = details: in vivo, po, limits of reliability (p : 0.95) in brackets
Text: (1) the limits of reliability (p : 0.95) are given in brackets.

Ac.chol. = test: Antispasmodic activity, Ac.chol.
BaCl2 = test: Antispasmodic activity, BaCl2
Hist. = test: Antispasmodic activity, Hist.
guinea pig atria's = test: Protective activity against anoxia (guinea pig atria); parameters: key: scale: + = 10 to 20% increase in survival time; details: increase in survival time
Text: (5) guinea pig atria's;
+ = increase in survival time of 10 to 20%

[1] = system: peripheral vasodilatatory activity; test: Vasodilatory effect after intraarterial injection in dog; assay type: in vivo
Protocol: (1) intraarterial injection in dog (5 animals) 10, 20 and 30 μg/kg.
(2) maximum vasodilatory effect in mm of Hg.
(3) and (4) expressed in seconds.

[2] = system: spontaneously hypertensive rat; test: Antihypertensive activity (spontaneously hypertensive rat); assay type: in vivo; details: 15 mg/kg per os
Protocol: (3) spontaneously hypertensive rat; 15 mg/kg per os;
± reduction of systolic pressure up to 10 mm of Hg
+ reduction of systolic pressure of 10 to 20 mm Hg
++ reduction of systolic pressure of at least 20 mm of Hg

CCCCNC(C)C(O)c1ccc(SCC)cc1 (stereo not shown) [No 12]
LD50 (DL50 mouse p.o.): 312 mg/kg
Antispasmodic activity CE 100, Ac.chol. (Ac.chol.): 500 μ g γ 60 ml
Antispasmodic activity CE 100, BaCl2 (BaCl2): 1000 μ g γ 60 ml
Antispasmodic activity CE 100, Hist. (Hist.): 1000 μ g γ 60 ml
Protective activity against anoxia (guinea pig atria's): 0

COc1ccc(Cc2nccc3cc(OC)c(OC)cc23)cc1OC [papaverine, reference compound]
Amplitude (maximum vasodilatory effect) ([1]; 10 μg/kg): 40 mm of Hg
Duration of effect ([1]; 10 μg/kg): 43 s
Amplitude (maximum vasodilatory effect) ([1]; 20 μg/kg): 51 mm of Hg
Duration of effect ([1]; 20 μg/kg): 45 s
Amplitude (maximum vasodilatory effect) ([1]; 30 μg/kg): 54 mm of Hg
Duration of effect ([1]; 30 μg/kg): 47 s

CCCCCCNC(C)C(O)c1ccc(SC(C)C)cc1 (stereo not shown) [No 28]
LD50 (DL50 mouse p.o.): 1450 mg/kg

CCCCNC(CC)C(O)c1ccc(SC)cc1 (stereo not shown) [No 17]
LD50 (DL50 mouse p.o.): 122 mg/kg
Antispasmodic activity CE 100, Ac.chol. (Ac.chol.): 1000 μ g γ 60 ml
Antispasmodic activity CE 100, BaCl2 (BaCl2): 1000 μ g γ 60 ml
Antispasmodic activity CE 100, Hist. (Hist.): 1000 μ g γ 60 ml
Anti-hypertensive activity [2]: + (reduction of systolic pressure of 10 to 20 mm Hg)
Protective activity against anoxia (guinea pig atria's): 0

CC(Cc1ccccc1)NC(C)C(O)c1ccc(SC(C)C)cc1 (stereo not shown) [No 35]
LD50 (DL50 mouse p.o.): 2100 mg/kg
Antispasmodic activity CE 100, Ac.chol. (Ac.chol.): 500 μ g γ 60 ml
Antispasmodic activity CE 100, BaCl2 (BaCl2): 500 μ g γ 60 ml
Antispasmodic activity CE 100, Hist. (Hist.): 200 μ g γ 60 ml
Anti-hypertensive activity [2]: ± (reduction of systolic pressure up to 10 mm of Hg)

CC(C)NC(C)C(O)c1ccc(SC(C)C)cc1 (stereo not shown) [No 3]
LD50 (DL50 mouse p.o.): 630 mg/kg

CCC(C)NC(C)C(O)c1ccc(SCC(C)C)cc1 (stereo not shown) [No 23]
Antispasmodic activity CE 100, Ac.chol. (Ac.chol.): 200 μ g γ 60 ml
Antispasmodic activity CE 100, BaCl2 (BaCl2): 500 μ g γ 60 ml
Antispasmodic activity CE 100, Hist. (Hist.): 200 μ g γ 60 ml
Protective activity against anoxia (guinea pig atria's): 0

CCCCNC(CC)C(O)c1ccc(SC(C)C)cc1 (stereo not shown) [No 6]
LD50 (DL50 mouse p.o.): > 1000 mg/kg
Antispasmodic activity CE 100, Ac.chol. (Ac.chol.): 100 μ g γ 60 ml
Antispasmodic activity CE 100, BaCl2 (BaCl2): 1000 μ g γ 60 ml
Antispasmodic activity CE 100, Hist. (Hist.): 500 μ g γ 60 ml
Protective activity against anoxia (guinea pig atria's): 0

CCCCCCCNC(C)C(O)c1ccc(SC(C)C)cc1 (stereo not shown) [No 29]
LD50 (DL50 mouse p.o.): ~2400 mg/kg

CCC(C)NC(C)C(O)c1ccc(SC(C)C)cc1 (stereo not shown) [No 4]
LD50 (DL50 mouse p.o.): 520 mg/kg
Antispasmodic activity CE 100, Ac.chol. (Ac.chol.): 1000 μ g γ 60 ml
Antispasmodic activity CE 100, BaCl2 (BaCl2): 500 μ g γ 60 ml
Antispasmodic activity CE 100, Hist. (Hist.): 1000 μ g γ 60 ml
Protective activity against anoxia (guinea pig atria's): 0

CC(NC(C)(C)C)C(O)c1ccc(SC2CCCCC2)cc1 (stereo not shown) [No 21]
Antispasmodic activity CE 100, Ac.chol. (Ac.chol.): 100 μ g γ 60 ml
Antispasmodic activity CE 100, BaCl2 (BaCl2): 500 μ g γ 60 ml
Antispasmodic activity CE 100, Hist. (Hist.): 500 μ g γ 60 ml
Anti-hypertensive activity [2]: 0

CCC(C(O)c1ccc(SC2CCCCC2)cc1)N1CCCCC1 (stereo not shown) [No 34]
Antispasmodic activity CE 100, Ac.chol. (Ac.chol.): 100 μ g γ 60 ml
Antispasmodic activity CE 100, BaCl2 (BaCl2): 200 μ g γ 60 ml
Antispasmodic activity CE 100, Hist. (Hist.): 1000 μ g γ 60 ml

1-(4-methylthiophenyl)-2-n-octylaminopropanol [No 11]
Antispasmodic activity CE 100, Ac.chol. (Ac.chol.): 1000 μ g γ 60 ml
Antispasmodic activity CE 100, BaCl2 (BaCl2): > 1000 μ g γ 60 ml
Antispasmodic activity CE 100, Hist. (Hist.): 1000 μ g γ 60 ml
Protective activity against anoxia (guinea pig atria's): 0

CCCCNC(C)C(O)c1ccc(SC(C)C)cc1 (stereo not shown) [No 1]
LD50 (DL50 mouse p.o.): 680 mg/kg
Antispasmodic activity CE 100, Ac.chol. (Ac.chol.): 1000 μ g γ 60 ml
Antispasmodic activity CE 100, BaCl2 (BaCl2): 500 μ g γ 60 ml
Antispasmodic activity CE 100, Hist. (Hist.): 500 μ g γ 60 ml
Protective activity against anoxia (guinea pig atria's): 0

CC(C)CSc1ccc(C(O)C(C)NC(C)(C)C)cc1 (stereo not shown) [No 24]
Antispasmodic activity CE 100, Ac.chol. (Ac.chol.): 1000 μ g γ 60 ml
Antispasmodic activity CE 100, BaCl2 (BaCl2): 500 μ g γ 60 ml
Antispasmodic activity CE 100, Hist. (Hist.): 200 μ g γ 60 ml

CCC(C)NC(CC)C(O)c1ccc(SC(C)C)cc1 (stereo not shown) [No 9]
Antispasmodic activity CE 100, Ac.chol. (Ac.chol.): 200 μ g γ 60 ml
Antispasmodic activity CE 100, BaCl2 (BaCl2): 500 μ g γ 60 ml
Antispasmodic activity CE 100, Hist. (Hist.): 1000 μ g γ 60 ml
Protective activity against anoxia (guinea pig atria's): ++ (increase in survival time of more than 25%)

CCCCCCCCNC(CC)C(O)c1ccc(SC)cc1 (stereo not shown) [No 18]
LD50 (DL50 mouse p.o.): ~3500 mg/kg
Antispasmodic activity CE 100, Ac.chol. (Ac.chol.): 200 μ g γ 60 ml
Antispasmodic activity CE 100, BaCl2 (BaCl2): 500 μ g γ 60 ml
Antispasmodic activity CE 100, Hist. (Hist.): 200 μ g γ 60 ml
Anti-hypertensive activity [2]: 0
Protective activity against anoxia (guinea pig atria's): 0

CCCCCCCCNC(C)C(O)c1ccc(SCC(C)C)cc1 (stereo not shown) [No 26]
LD50 (DL50 mouse p.o.): > 4000 mg/kg
Antispasmodic activity CE 100, Ac.chol. (Ac.chol.): 200 μ g γ 60 ml
Antispasmodic activity CE 100, BaCl2 (BaCl2): 200 μ g γ 60 ml
Antispasmodic activity CE 100, Hist. (Hist.): 200 μ g γ 60 ml
Protective activity against anoxia (guinea pig atria's): 0

CC(C)CSc1ccc(C(O)C(C)NC(C)C)cc1 (stereo not shown) [No 22]
LD50 (DL50 mouse p.o.): 1280 mg/kg
Antispasmodic activity CE 100, Ac.chol. (Ac.chol.): 1000 μ g γ 60 ml
Antispasmodic activity CE 100, BaCl2 (BaCl2): 500 μ g γ 60 ml
Antispasmodic activity CE 100, Hist. (Hist.): 500 μ g γ 60 ml
Protective activity against anoxia (guinea pig atria's): 0

CCCCNC(C)C(O)c1ccc(SC2CCCCC2)cc1 (stereo not shown) [No 14]
Antispasmodic activity CE 100, Ac.chol. (Ac.chol.): 100 μ g γ 60 ml
Antispasmodic activity CE 100, BaCl2 (BaCl2): 200 μ g γ 60 ml
Antispasmodic activity CE 100, Hist. (Hist.): 500 μ g γ 60 ml

CCCCNC(CC)C(O)c1ccc(SCC)cc1 (stereo not shown) [No 19]
LD50 (DL50 mouse p.o.): 640 mg/kg
Antispasmodic activity CE 100, Ac.chol. (Ac.chol.): 1000 μ g γ 60 ml
Antispasmodic activity CE 100, BaCl2 (BaCl2): 500 μ g γ 60 ml
Antispasmodic activity CE 100, Hist. (Hist.): 1000 μ g γ 60 ml
Protective activity against anoxia (guinea pig atria's): 0

CCCCCCCCNC(C)C(O)c1ccc(SC2CCCC2)cc1 (stereo not shown) [No 32]
LD50 (DL50 mouse p.o.): > 4000 mg/kg
Anti-hypertensive activity [2]: ++ (reduction of systolic pressure of at least 20 mm of Hg)

CC(C(O)c1ccc(SC2CCCCC2)cc1)N1CCCCC1 (stereo not shown) [No 33]
Antispasmodic activity CE 100, Ac.chol. (Ac.chol.): > 1000 μ g γ 60 ml
Antispasmodic activity CE 100, BaCl2 (BaCl2): > 1000 μ g γ 60 ml
Antispasmodic activity CE 100, Hist. (Hist.): > 1000 μ g γ 60 ml

CCCCNC(C)C(O)c1ccc(SCC(C)C)cc1 (stereo not shown) [No 25]
LD50 (DL50 mouse p.o.): 1350 mg/kg
Antispasmodic activity CE 100, Ac.chol. (Ac.chol.): 100 μ g γ 60 ml
Antispasmodic activity CE 100, BaCl2 (BaCl2): 200 μ g γ 60 ml
Antispasmodic activity CE 100, Hist. (Hist.): 200 μ g γ 60 ml
Protective activity against anoxia (guinea pig atria's): 0

CCCCCCCCNC(C)C(O)c1ccc(SC2CCCCC2)cc1 (stereo not shown) [No 15]
LD50 (DL50 mouse p.o.): ~5000 mg/kg
Antispasmodic activity CE 100, Ac.chol. (Ac.chol.): 500 μ g γ 60 ml
Antispasmodic activity CE 100, BaCl2 (BaCl2): 1000 μ g γ 60 ml
Antispasmodic activity CE 100, Hist. (Hist.): 1000 μ g γ 60 ml
Anti-hypertensive activity [2]: ++ (reduction of systolic pressure of at least 20 mm of Hg)

CCC(NC(C)C)C(O)c1ccc(SC2CCCCC2)cc1 (stereo not shown) [No 27]
Antispasmodic activity CE 100, Ac.chol. (Ac.chol.): 200 μ g γ 60 ml
Antispasmodic activity CE 100, BaCl2 (BaCl2): 200 μ g γ 60 ml
Antispasmodic activity CE 100, Hist. (Hist.): 500 μ g γ 60 ml

CCC(NC(C)C)C(O)c1ccc(SC(C)C)cc1 (stereo not shown) [No 7]
Antispasmodic activity CE 100, Ac.chol. (Ac.chol.): 200 μ g γ 60 ml
Antispasmodic activity CE 100, BaCl2 (BaCl2): 1000 μ g γ 60 ml
Antispasmodic activity CE 100, Hist. (Hist.): 1000 μ g γ 60 ml
Protective activity against anoxia (guinea pig atria's): 0

CC(C)Sc1ccc(C(O)C(C)NC(C)(C)C)cc1 (stereo not shown) [No 5]
Antispasmodic activity CE 100, Ac.chol. (Ac.chol.): 1000 μ g γ 60 ml
Antispasmodic activity CE 100, BaCl2 (BaCl2): 1000 μ g γ 60 ml
Antispasmodic activity CE 100, Hist. (Hist.): > 1000 μ g γ 60 ml
Protective activity against anoxia (guinea pig atria's): 0

CCC(C)NC(C)C(O)c1ccc(SC2CCCCC2)cc1 (stereo not shown) [No 16]
Antispasmodic activity CE 100, Ac.chol. (Ac.chol.): 200 μ g γ 60 ml
Antispasmodic activity CE 100, BaCl2 (BaCl2): 200 μ g γ 60 ml
Antispasmodic activity CE 100, Hist. (Hist.): 500 μ g γ 60 ml
